Results from ChEMBL document CHEMBL5113460, “Discovery of dual inhibitors of topoisomerase I and Cyclooxygenase-2 for colon cancer therapy” (Eur J Med Chem, 2022).
Activity calls are given as the source filed them. The calls are words filed in the database; no cut-off is given here.

Columns and labels:
HT-29 [1] = test: Induction of apoptosis in human HT-29 cells assessed as increase in cleaved caspase-3 protein level at 2 to 8 uM incubated for 24 hrs by western blot analysis; assay type: functional, cell-based; conditions: dose 2-8 µM
RKO [2] = test: Antitumor activity against human RKO cells assessed as inhibition of cell proliferation incubated for 72 hrs by MTT assay; assay type: functional, cell-based
RKO [3] = test: Induction of apoptosis in human RKO cells assessed as increase in cytochrome c protein level at 3 to 9 uM incubated for 24 hrs by western blot analysis; assay type: functional, cell-based; conditions: dose 3-9 µM
HT-29 [4] = test: Antitumor activity against human HT-29 cells xenografted in BALB/c mouse assessed as inhibition of tumor microvessel density by measuring CD31-index at 15 mg/kg, ip bid for 14 days by immunohistochemical analysis; assay type: functional; conditions: time 14 day
LoVo = test: Antitumor activity against human LoVo cells assessed as inhibition of cell proliferation incubated for 72 hrs by MTT assay; assay type: functional, cell-based
RKO [5] = test: Induction of apoptosis in human RKO cells assessed as necrotic cells at 9 uM incubated for 24 hr by Annexin-V-FITC/PI staining based flow cytometry (Rvb= 0.30%); assay type: functional
HT-29 [6] = test: Induction of apoptosis in human HT-29 cells assessed as decrease in Bcl-2 protein level at 2 to 8 uM incubated for 24 hrs by western blot analysis; assay type: functional, cell-based; conditions: dose 2-8 µM
RKO [7] = test: Induction of apoptosis in human RKO cells assessed as decrease in Bcl-2 protein level at 3 to 9 uM incubated for 24 hrs by western blot analysis; assay type: functional, cell-based; conditions: dose 3-9 µM
HT-29 [8] = test: Induction of apoptosis in human HT-29 cells assessed as viable cells at 8 uM incubated for 24 hr by Annexin-V-FITC/PI staining based flow cytometry (Rvb= 83.5%); assay type: functional; conditions: read-out: Activity
RKO [9] = test: Inhibition of NF-kappaB signalling pathway in human RKO cells assessed as decrease in phosphorylated NF-kappaB p65 level at 3 to 9 uM incubated for 24 hrs by Western blot analysis; assay type: cell-based; conditions: dose 3-9 µM
HCT-116 = test: Antitumor activity against human HCT-116 cells assessed as inhibition of cell proliferation incubated for 72 hrs by MTT assay; assay type: functional, cell-based; conditions: HCT-116, 72 h
HT-29 [10] = test: Induction of apoptosis in human HT-29 cells assessed as necrotic cells at 8 uM incubated for 24 hr by Annexin-V-FITC/PI staining based flow cytometry (Rvb=1.67%); assay type: functional
HT-29 [11] = test: Inhibition of NF-kappaB signalling pathway in human HT-29 cells assessed as decrease in phosphorylated IkappaB level at 2 to 8 uM incubated for 24 hrs by Western blot analysis; assay type: cell-based; conditions: dose 2-8 µM
HT-29 [12] = test: Induction of apoptosis in human HT-29 cells assessed as late apoptotic cells at 4 uM incubated for 24 hr by Annexin-V-FITC/PI staining based flow cytometry (Rvb=8.60%); assay type: functional
[13] = molecular target: Prostaglandin G/H synthase 2 (Homo sapiens) (UniProt P35354); test: Inhibition of COX-2 (unknown origin) at 30 uM
Chain of Prostaglandin G/H synthase 2 (Homo sapiens) (P35354 whole entry, looked up): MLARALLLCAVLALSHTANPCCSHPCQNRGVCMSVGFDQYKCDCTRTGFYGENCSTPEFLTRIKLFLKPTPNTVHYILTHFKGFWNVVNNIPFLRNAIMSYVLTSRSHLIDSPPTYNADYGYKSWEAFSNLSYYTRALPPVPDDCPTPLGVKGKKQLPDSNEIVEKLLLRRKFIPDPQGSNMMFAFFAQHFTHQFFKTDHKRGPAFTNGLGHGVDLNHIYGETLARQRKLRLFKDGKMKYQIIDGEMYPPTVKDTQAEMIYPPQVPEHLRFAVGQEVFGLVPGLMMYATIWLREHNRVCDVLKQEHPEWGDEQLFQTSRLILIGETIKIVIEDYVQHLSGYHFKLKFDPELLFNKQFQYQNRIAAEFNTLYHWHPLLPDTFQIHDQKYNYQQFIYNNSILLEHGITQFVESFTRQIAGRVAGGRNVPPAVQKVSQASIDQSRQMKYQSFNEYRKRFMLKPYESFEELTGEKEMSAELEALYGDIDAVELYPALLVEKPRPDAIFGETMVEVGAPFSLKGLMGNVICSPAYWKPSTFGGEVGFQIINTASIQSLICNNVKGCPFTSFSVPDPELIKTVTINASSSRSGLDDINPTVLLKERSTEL

RKO [14] = test: Induction of apoptosis in human RKO cells assessed as viable cells at 6 uM incubated for 24 hr by Annexin-V-FITC/PI staining based flow cytometry (Rvb= 87.9%); assay type: functional; conditions: read-out: Activity
HT-29 [15] = test: Antiproliferative activity against human HT-29 cells assessed as inhibition of cell colonies at 0.25 to 1 uM incubated for 7 days by crystal violet staining based microscopic analysis; assay type: functional; conditions: dose 0.25-1 µM, time 7.0 day
RKO [16] = test: Induction of DNA damage in human RKO cells assessed as increase in tail length at 3 to 9 uM incubated for 24 hrs by Comet assay; assay type: functional, cell-based; conditions: dose 3-9 µM
[17] = AUC (0-t) in Sprague-Dawley rat at 100 mg/kg, po and measured upto 24 hrs by LC-MS analysis; assay type: ADME, organism-based; design: dose 100 mg/kg, time < 24 hrs, route po; conditions: in vivo
[18] = Tmax in Sprague-Dawley rat at 100 mg/kg, po and measured upto 24 hrs by LC-MS analysis; assay type: ADME, organism-based; conditions: in vivo
RKO [19] = test: Induction of apoptosis in human RKO cells assessed as late apoptotic cells at 3 uM incubated for 24 hr by Annexin-V-FITC/PI staining based flow cytometry (Rvb= 4.49%); assay type: functional
RKO [20] = test: Induction of apoptosis in human RKO cells assessed as viable cells at 9 uM incubated for 24 hr by Annexin-V-FITC/PI staining based flow cytometry (Rvb= 87.9%); assay type: functional; conditions: read-out: Activity
[21] = Tmax in Sprague-Dawley rat at 30 mg/kg, po and measured upto 12 hrs by LC-MS analysis; assay type: ADME, organism-based; conditions: in vivo
HT-29 [22] = test: Inhibition of NF-kappaB signalling pathway in human HT-29 cells assessed as decrease in phosphorylated NF-kappaB p65 level at 2 to 8 uM incubated for 24 hrs by Western blot analysis; assay type: cell-based; conditions: dose 2-8 µM

IC50 (LoVo): 4.89 µM
IC50 (HCT-116): 8.42 µM
inhibition [13]: 100%
AUC(0-t) at 24 h [17]: 24800 ng·h/mL
Tmax [18]: 3.67 h
Tmax [21]: 0.28 h
SMILES: Cc1c(Cl)cccc1Nc1ccccc1C(=O)Nc1ccc(N2CCNCC2)cc1
Activity (HT-29 [1]): Active
IC50 (RKO [2]): 2.06 µM
Activity (RKO [3]): Active
Inhibition_index (HT-29 [4]): 10.67
Activity (RKO [5]): 0.59%
Activity (HT-29 [6]): Active
Activity (RKO [7]): Active
viability at 8 µM (HT-29 [8]): 68.9%
inhibition (RKO [9]): Active
Activity (HT-29 [10]): 1.05%
inhibition (HT-29 [11]): Active
Activity (HT-29 [12]): 14%
viability at 6 µM (RKO [14]): 81.9%
Activity (HT-29 [15]): Active
Activity (RKO [16]): Active
Activity (RKO [19]): 4.66%
viability at 9 µM (RKO [20]): 65.6%
inhibition (HT-29 [22]): Active
